In this test the test system is SARS-CoV-2 KOR-KCDC03-2020 strain. As to the kind of experiment: Prophylactic immunofluorescent infection assay in Vero E6 cells. It counts as cell-based. The following applies: Severe acute respiratory syndrome coronavirus 2, compound added one hour prior to virus, MOI 0.0125, 24 hours.

`CCC(CC)COC(=O)[C@H](C)N[P@](=O)(OC[C@H]1O[C@@](C#N)(c2ccc3c(N)ncnn23)[C@H](O)[C@@H]1O)Oc1ccccc1` [Remdesivir, remdesivir] displayed an EC50 of 12.9 µM.

Values taken from US20230330180A1 (priority 2022, published 2023).
